The results in this text go back to ChEMBL document CHEMBL1201862, “PubChem BioAssay data set” (2004).

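Compound exposure: 48 hours, 5 concentrations, 96-well plates. At the GI50, growth is halved.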 Activity calls are given as the source filed them. Cut-off read from the data, not from the text of the source: active = GI50 up to about 1.1 µM and inactive = higher. Where only a bound is given, the exact number is not on record here.

Test systems include MOLT-4; SF-268; PC-3; ACHN; HL-60; SN12C; SK-MEL-28; HOP-62; NCI-H460; SF-539; T47D; SNB-19; A549; SNB-75; RXF 393; NCI/ADR-RES; OVCAR-3; NCI-H226; HCT-15; UO-31.
Holding throughout (experiment): inhibition of tumour cell growth, NCI panel, 48 h

For `O=C1C=C2C(=NC34CCCCC3C(c3ccccc3)C3=C(c5ccccc5CC3)N24)c2ccccc21` (stereo unspecified), the GI50 with MOLT-4, in the experiment on SF-268, in the experiment with PC-3, in the experiment with ACHN, with HL-60 and with SN12C was > 10 µM (inactive) each time. The GI50 in the experiment on SK-MEL-28, in the experiment with HOP-62, with NCI-H460, with SF-539, in the experiment on T47D and in the experiment with SNB-19 was > 10 µM (inactive) in each case. The GI50 was > 10 µM (inactive) in the experiment on A549; 8.95 µM (inactive) with SNB-75; > 10 µM (inactive) in the experiment with RXF 393; > 10 µM (inactive) in the experiment on NCI/ADR-RES; > 10 µM (inactive) in the experiment with OVCAR-3; > 10 µM (inactive) in the experiment on NCI-H226. The same compound yielded a GI50 with HCT-15 of over 10 µM.
Turning to `O=C(NCCc1n[nH]c2c1C(=O)C=C(Nc1ccccc1)C2=O)OCc1ccccc1`, the GI50 in the experiment with MOLT-4, in the experiment on SF-268, with PC-3, in the experiment on ACHN, in the experiment with HL-60 and in the experiment on SN12C was > 100 µM (inactive) each time. Moreover, the GI50 with NCI-H460 is > 100 µM (inactive); with SF-539 it was > 100 µM (inactive); with T47D, 53.8 µM (inactive); in the experiment on UO-31 it was > 100 µM (inactive); with SNB-19, > 100 µM (inactive); in the experiment on A549 it was > 100 µM (inactive). The GI50 is > 100 µM (inactive) with SNB-75; > 100 µM (inactive) with RXF 393; > 100 µM (inactive) in the experiment with NCI/ADR-RES; > 100 µM (inactive) in the experiment on OVCAR-3; > 100 µM (inactive) in the experiment with NCI-H226; over 100 µM with HCT-15.
In the case of `COc1cc(Br)c(CC2C3=C(CCN2C(=O)C2CCC2)CC2(CC3)OCCO2)cc1O` (stereo unspecified), the GI50 was 43.3 µM (inactive) in the experiment with MOLT-4; 83.9 µM (inactive) with SF-268; 46.6 µM (inactive) with PC-3; 98.4 µM (inactive) with ACHN; 46.7 µM (inactive) with HL-60; 84.1 µM (inactive) in the experiment on SN12C. In addition, the GI50 was 93.5 µM (inactive) in the experiment with SK-MEL-28; > 100 µM (inactive) with HOP-62; 50.2 µM (inactive) in the experiment with NCI-H460; > 100 µM (inactive) in the experiment with SF-539; 29.9 µM (inactive) with T47D; > 100 µM (inactive) in the experiment on SNB-19. Further, the GI50 in the experiment on A549 was 57.9 µM (inactive); in the experiment with SNB-75 it was 17.2 µM (inactive); in the experiment with RXF 393, 4.84 µM (inactive); in the experiment with NCI/ADR-RES it was 26.5 µM (inactive); in the experiment with OVCAR-3 it was 33.5 µM (inactive); with NCI-H226 it was > 100 µM (inactive). For the same compound, in the experiment on HCT-15, the GI50 is 27.9 µM.
Take `CC(CCc1ccccc1)NCC(O)n1c(/N=N/N(C)C)nc2c1c(=O)n(C)c(=O)n2C` (stereo unspecified): the GI50 is > 100 µM (inactive) in the experiment on MOLT-4; > 100 µM (inactive) in the experiment on SF-268; > 100 µM (inactive) with PC-3; > 100 µM (inactive) in the experiment on ACHN; 66.7 µM (inactive) in the experiment with HL-60; > 100 µM (inactive) in the experiment on SK-MEL-28. For the same compound, the GI50 is > 100 µM (inactive) in the experiment on HOP-62; 41.1 µM (inactive) in the experiment on NCI-H460; > 100 µM (inactive) in the experiment with SF-539; > 100 µM (inactive) in the experiment with T47D; > 100 µM (inactive) in the experiment with UO-31; > 100 µM (inactive) in the experiment with SNB-19. Moreover, the GI50 with A549 was > 100 µM (inactive); in the experiment on SNB-75, 9.62 µM (inactive); with RXF 393, > 100 µM (inactive); in the experiment with NCI/ADR-RES it was > 100 µM (inactive); in the experiment on OVCAR-3 it was > 100 µM (inactive); in the experiment with NCI-H226, > 100 µM (inactive). Also, the GI50 in the experiment with HCT-15 was over 100 µM.
With `CSc1c(C(=O)Nc2ccc(Cl)cc2)c(N)n(N)c(=O)c1C#N`, the GI50 in the experiment on MOLT-4 was 76.9 µM (inactive); in the experiment with SF-268 it was > 100 µM (inactive); in the experiment on PC-3, 79.8 µM (inactive); in the experiment with HL-60 it was 78.7 µM (inactive); in the experiment on SN12C it was > 100 µM (inactive); in the experiment on SK-MEL-28, > 100 µM (inactive). Further, the GI50 in the experiment with NCI-H460 is > 100 µM (inactive); with SF-539, > 100 µM (inactive); in the experiment with T47D it was 31.3 µM (inactive); with UO-31 it was 31.6 µM (inactive); in the experiment with SNB-19, > 100 µM (inactive); with A549 it was > 100 µM (inactive). Also, the GI50 in the experiment with SNB-75 was > 100 µM (inactive); with RXF 393 it was > 100 µM (inactive); in the experiment with NCI/ADR-RES, 58.1 µM (inactive); in the experiment with OVCAR-3, 48.8 µM (inactive); in the experiment with NCI-H226 it was 89.7 µM (inactive); in the experiment with HCT-15 it was 77.4 µM.
Consider `CCC(=O)O[C@H]1CC[C@H]2[C@@H]3CCC4=C/C(=N/OC(=O)c5cccc6cc7ccccc7nc56)CC[C@]4(C)[C@H]3CC[C@]12C`, for which the GI50 in the experiment with MOLT-4 was > 100 µM (inactive); in the experiment with SF-268 it was > 100 µM (inactive); in the experiment on PC-3, 29 µM (inactive); with ACHN it was > 100 µM (inactive); with HL-60 it was 44.3 µM (inactive); with SN12C, > 100 µM (inactive). Further, the GI50 with SK-MEL-28 is 90.2 µM (inactive); in the experiment on HOP-62, 50.5 µM (inactive); in the experiment on NCI-H460 it was 39.1 µM (inactive); in the experiment with SF-539, 43.4 µM (inactive); with T47D, 21.9 µM (inactive); in the experiment with SNB-19, 70.1 µM (inactive). Besides, the GI50 is 71.1 µM (inactive) with A549; 83.8 µM (inactive) in the experiment with SNB-75; > 100 µM (inactive) in the experiment with RXF 393; 60.4 µM (inactive) with NCI/ADR-RES; 29 µM (inactive) with OVCAR-3; > 100 µM (inactive) with NCI-H226. The compound further gave a GI50 in the experiment on HCT-15 of 55.7 µM.
As for `COC1C(O)C(C)OC(OC2C(Oc3cccc4c(O)c5c(=O)oc6ccc(C)c7c(=O)oc(c34)c5c67)OC(C)C3O[C@H](c4ccccc4)OC32)C1O` (stereo partly specified), the GI50 was 0.135 µM (active) with SF-268; 0.361 µM (active) in the experiment with PC-3; 0.0378 µM (active) in the experiment on ACHN; 0.098 µM (active) in the experiment on HL-60; 0.0578 µM (active) with SN12C; 0.319 µM (active) in the experiment with SK-MEL-28. Further, the GI50 in the experiment with HOP-62 is 0.0441 µM (active); with NCI-H460, 0.0195 µM (active); in the experiment on SF-539 it was 0.0746 µM (active); with T47D, 0.196 µM (active); in the experiment on UO-31, 0.294 µM (active); in the experiment on SNB-19, 0.13 µM (active). For the same compound, the GI50 with A549 is 0.0286 µM (active); in the experiment with SNB-75, 0.583 µM (active); in the experiment with RXF 393, 0.274 µM (active); in the experiment on NCI/ADR-RES, 2.12 µM (inactive); in the experiment with OVCAR-3 it was 0.195 µM (active); in the experiment with NCI-H226 it was 0.0682 µM (active). Also, in the experiment on HCT-15, the GI50 is 0.168 µM.
